Values quoted from earlier work, collected in patent publication US20180311201A1, “ORAL PHARMACEUTICAL COMPOSITION COMPRISING OTILONIUM BROMIDE AND SIMETHICONE WITH CERTAIN BULK DENSITY AND IMPROVED DISSOLUTION CHARACTERISTICS” (priority 2015, published 2018).

- Solubility in dimethyl sulfoxide (dimethyl sulfoxide): > 25 mg/mL
- Solubility in ethanol (ethanol): soluble
- Solubility in water (water): 12 mg/mL
SMILES: CCCCCCCCOc1ccccc1C(=O)Nc1ccc(C(=O)OCC[N+](C)(CC)CC)cc1.[Br-] [Otilonium bromide, N,N-Diethyl-N-methyl-2-(4-[2-(octyloxy)benzamido]benzoyloxy)ethanaminium bromide]
